Experimental data as given in US20200030288A1, “STATIN FOR PREVENTION/REDUCTION OF ISCHEMIA-RELATED DAMAGE” (Fundacio Institut De Recerca De L'Hospial De La Santa Creu …, priority 2017, published 2020).

What was measured:
[1] = tested on: mouse model for myocardial ischemia; test: Mouse model of myocardial ischemia by coronary ligation: infarct size and 8-OH-dG oxidative damage; assay type: in vivo, Male CH3 mice; settings: single i.p. dose 15 min after coronary ligation, 45 min ischemia; for reduction of size of infarction (% of total LV wall): vs vehicle-control
Method: (§1) Complete LAD coronary artery ligation was performed as follows. Male CH3 mice (8-10 weeks old, weighing 25-30 g) were intubated and anesthesized with a mixture of O2/isoflurane and mechanically ventilated (rate 90 breaths/min, tidal volume 0.1 mL). Rectal temperature was continuously monitored throughout the surgery and maintained within 37-38° C. using a heat pad and heat lamp. An anterior thoracotomy was performed; the heart was exposed and the LAD coronary artery was occluded with an intramural stitch (7-0 silk suture; consistent ligation of the left coronary artery as it emerges from under the left atrium) for 45 minutes. Success of complete coronary ligation was verified by electrocardiographic visualization of the ST-elevation-MI pattern that was monitored by high frequency ultrasounds with the Vevo2100 from Visualsonics and by the visualization of a pale, hypokinetic ventricle distal to the site of occlusion.
Ischemia was continued for another 30 min after administration of the single dose (i.e. altogether 45 min of ischemia), then mice were sacrificed and the heart was carefully excised for infarct size analysis.
Infarct size was determined by morphometric analysis. For this purpose, all mouse hearts were immersed in fixative solution (4% paraformaldehyde), embedded in OCT compound and cross-sectioned from apex to base (10 μm thick sections 200 μm distanced). Sections were stained with haematoxylin and eosin and morphometric infarct size analysis was determined using image analysis software (ImageJ, NIH). Infarct size was calculated by the sum of myocardial infarct areas between sections and expressed as a percentage of total LV wall. Three measurements per section were determined.
In addition, myocardial oxidative damage was also assessed. For this purpose, ischemic myocardial tissue was cut into 5-μm-thick slices for 8-OH-dG (Abcam ab48508) staining, a measurement indicative of oxidative stress-induced DNA-damage. Staining was calculated by a single blinded observer from an average of 5-fields/animal as % of stained area. Images were captured by Nikon Eclipse 80i microscope and digitized by Retiga 1300i Fast camera.

[2] = tested on: mouse model of myocardial ischemia; test: Mouse coronary ligation model with AMPK inhibitor given before atorvastatin; assay type: in vivo, mice; settings: Compound C 30 mg/kg i.p. prior to atorvastatin 0.3 mg/kg at 15 min of ischemia; 45 min ischemia
Method: as §1
Infarct size was determined by morphometric analysis. […] Sections were stained with haematoxylin and eosin and morphometric infarct size analysis was determined using image analysis software (ImageJ, NIH). Infarct size was calculated by the sum of myocardial infarct areas between sections and expressed as a percentage of total LV wall. Three measurements per section were determined.
In addition, myocardial oxidative damage was also assessed. […]

[3] = tested on: pig model of ischemia and reperfusion; test: Pig model of ischemia and reperfusion (hypercholesterolemic diet, 90 min occlusion, 2.5 h reperfusion); assay type: in vivo, pigs; settings: 0.3 mg/kg i.v. after 75 min of ischemia
Method: Pigs were fed a hypercholesterolemic diet as in Example 11. After this 10-day diet period animals underwent a closed-chest 90 min mid-left anterior descending (LAD) coronary balloon occlusion. After 75 min of ischemia animals were randomized to intravenous infusion (femoral vein) of an active β-hydroxy acid derivative of simvastatin (R—OH—S; 0.3 mg/kg; n=12) or vehicle (0.9% NaCl; n=12). At minute 90, the balloon was deflated to achieve coronary artery reperfusion. Animals were reperfused for 2.5 h. Infarct size was determined morphometrically by Evan's Blue staining. To that end, 2.5 h post-reperfusion Evan's Blue dye was injected in the anesthetized pigs through the left atrium to outline the area-at-risk (AAR) after which the animals' hearts were arrested with potassium chloride and rapidly excised. Hearts were sectioned into 6 transverse slices parallel to the atrioventricular ring. Consecutive slices were alternatively collected for infarct size analysis (triphenyl tetrazolium chloride) and molecular studies of the ischemic and non-ischemic myocardium. Tissue samples obtained from the ischemic and non-ischemic myocardium all animals were pulverized and homogenized in Tripure® or lysis buffer for RNA and protein isolation, respectively. Protein levels of apoptosis markers (truncated-caspase-3) was assessed. Paraffin-embedded ischemic myocardial tissue of all animals was cut into 5-μm-thick slices for 8-hydroxyguanosine staining (Abcam ab48508), a measurement indicative of oxidative stress-induced DNA-damage, and OCT-embedded ischemic myocardial tissue of all animals was stained for neutrophil detection (anti-Neutrophil Elastase; Abcam). Staining was calculated by a single blinded observer from an average of 5-fields/animal as % of stained area. Images were captured by Nikon Eclipse 80i microscope and digitized by Retiga 1300i Fast camera. In addition, mitochondrial membrane potential (Δψm) was measured in the ischemic myocardium of all animals by flow cytometry using the ratiometric dye 5,5′,6,6′-tetrachloro-1,1′,3,3′-tetraethylbenzimidazol carbocyanine iodide (JC-1; Molecular Probes). Values were expressed as red fluorescence activity. Isolated mitochondria treated with valinomycin (Sigma), which decreases Δψm, were used as control (data not shown).

[4] = ischemic myocardial tissue, 2.5 h reperfusion

Row | SMILES | reduction of oxidative damage (8-OH-dG staining) within the ischemic myocardium [1] | reduction of size of infarction (% of total LV wall) [1] | effect on infarct size reduction achieved by atorvastatin [2] | effect on protection against oxidative damage (8-OHdG staining) [2] | size of myocardial damage (ischemic damage+reperfusion damage; infarct size) ([3]; assessed 2.5 h after reperfusion) | expression of cleaved caspase-3 [3, 4] | mitochondrial potential (JC-1) [3, 4] | oxidative stress (8-hydroxyguanosine staining) [3, 4] | recruitment of neutrophils [3, 4]
1 | CC(ONC(=O)c1cc(C(F)(F)F)cc(C(F)(F)F)c1)C(=O)Nc1ccc(Cl)cc1 (stereo not shown) [CCG1423] | 70% | around 50% | – | – | – | – | – | – | –
2 | c1cc(-c2cnn3cc(-c4ccc(OCCN5CCCCC5)cc4)cnc23)ccn1 [Compound C] | – | – | abolished | abolished | – | – | – | – | –
3 | CCC(C)(C)C(=O)OC1CC(C)C=C2C=CC(C)C(CCC(O)CC(O)CC(=O)O)C21 (stereo not drawn) [β-OH-simvastatin, β-hydroxy acid form of simvastatin] | – | around 50% | – | – | decreased | significantly reduced | preserved | decreased | limited
